Test [1] concerns the target T1, 3-galactosyl-N-acetylglucosaminide 4-alpha-L-fucosyltransferase FUT3 (Homo sapiens) (UniProt P21217).
T1 sequence (whole entry): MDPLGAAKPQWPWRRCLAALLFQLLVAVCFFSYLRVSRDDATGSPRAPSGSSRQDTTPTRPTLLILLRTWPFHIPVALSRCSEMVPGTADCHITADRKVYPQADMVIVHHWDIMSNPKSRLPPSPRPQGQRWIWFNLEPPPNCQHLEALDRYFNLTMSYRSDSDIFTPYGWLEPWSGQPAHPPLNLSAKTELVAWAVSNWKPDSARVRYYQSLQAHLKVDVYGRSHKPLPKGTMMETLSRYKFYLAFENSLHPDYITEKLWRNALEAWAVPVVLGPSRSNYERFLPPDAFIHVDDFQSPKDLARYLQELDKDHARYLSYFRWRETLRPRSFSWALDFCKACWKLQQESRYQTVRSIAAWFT
The test can be described thus: In vitro inhibition of Fucosyltransferase 3. On the set-up: concentration or dose not given beside the values. The note with it: concentration not given here.

For test [2], the target named is T2, 4-galactosyl-N-acetylglucosaminide 3-alpha-L-fucosyltransferase FUT6 (Homo sapiens) (UniProt P51993).
T2 sequence (whole entry): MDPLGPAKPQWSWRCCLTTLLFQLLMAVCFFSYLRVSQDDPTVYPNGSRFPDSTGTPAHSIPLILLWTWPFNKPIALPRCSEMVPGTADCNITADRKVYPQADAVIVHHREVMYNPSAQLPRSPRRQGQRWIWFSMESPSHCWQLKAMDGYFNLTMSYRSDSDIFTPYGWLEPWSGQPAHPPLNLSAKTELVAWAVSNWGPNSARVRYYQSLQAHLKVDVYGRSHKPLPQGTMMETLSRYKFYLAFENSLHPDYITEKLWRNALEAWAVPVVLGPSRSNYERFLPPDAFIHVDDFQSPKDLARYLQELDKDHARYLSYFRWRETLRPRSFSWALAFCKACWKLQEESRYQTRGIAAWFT
The test is described as follows: In vitro inhibition of Fucosyltransferase 6. On the set-up: concentration or dose not given beside the values. The note with it: concentration not given here.

For `C[C@@H]1O[C@H](OP(=O)(O)OP(=O)(O)OC[C@H]2O[C@@H](n3cnc4c(N)ncnc43)[C@H](O)[C@@H]2O)[C@@H](O)[C@@H](O)[C@H]1O`, the inhibition in test [1] worked out at 76%; in test [2], 60%.

Take `C[C@@H]1O[C@H](OP(=O)(O)OP(=O)(O)OC[C@H]2O[C@@H](n3cnc4c(O)nc(N)nc43)[C@H](O)[C@@H]2O)[C@H](O)[C@@H](O)[C@@H]1O`: the inhibition in test [1] was 96%; in test [2], 83%.

On to `C[C@@H]1O[C@H](OP(=O)(O)OP(=O)(O)OP(=O)(O)OC[C@H]2O[C@@H](n3cnc4c(O)nc(N)nc43)[C@H](O)[C@@H]2O)[C@H](O)[C@@H](O)[C@@H]1O`, for which the inhibition in test [1] and in test [2] was 0% in each case.

For `C[C@@H]1O[C@H](OP(=O)(O)OP(=O)(O)OC[C@H]2O[C@@H](n3cnc4c(=O)[nH]c(=O)[nH]c43)[C@H](O)[C@@H]2O)[C@@H](O)[C@@H](O)[C@H]1O`, the inhibition in test [1] turned out to be 73%; in test [2] it was 62%.

For the molecule `C[C@@H]1O[C@H](OP(=O)(O)OP(=O)(O)OC[C@H]2O[C@@H](n3cnc4c(O)ncnc43)[C@H](O)[C@@H]2O)[C@@H](O)[C@@H](O)[C@H]1O`, the inhibition in test [1] worked out at 68%; in test [2], 72%.

One may read the inhibition as the share of the control response that was lost under treatment.

The values above are taken from ChEMBL document CHEMBL1159135, “Enzymatic fucosylations with purine-diphosphate-fucoses (PDP-Fucoses)” (Bioorg Med Chem Lett, 1996).
